Key:
[1] = system: Huh7 human hepatocellular carcinoma cells; experiment: Cytotoxicity of drug-loaded liposomes (MTT); assay type: cell-based
Procedure: Huh7 human hepatocellular carcinoma cells (donation of Prof. Wanqing Liu) were cultured in RPMI-1640 medium complemented with 10% FBS, 100 U/mL penicillin, and […] streptomycin at 37° C. in a humidified 5% CO2 atmosphere. Huh7 cells were seeded in a 96 well plate at a density of 10,000 cells per well and grown to 70% confluence. Huh7 cells were exposed to free drug or liposomal preparations for 3 or 6 h. The cells were rinsed twice with fresh medium and kept in drug-free medium for 72 h. In another experiment, Huh7 cells were incubated with a free Gem, LRSG, LRHG, free Dox, LRD, blank liposomes, free drug mixture, or liposome mixture for 72 h. The medium was then removed, and 15 μL of 5 mg/mL MTT solution and 100 μL media were added to each well and incubated for 4 h at 37° C. Each well was then treated with 100 μL of stop/solubilization solution and agitated at 37° C. overnight. The absorbance of dissolved formazan was measured at 562 nm by a SpectraMax M3 microplate reader (Molecular Devices, Sunnyvale, Calif.).

Huh7 cells [2] = experiment: Confocal imaging of cellular uptake; assay type: cell-based, human; details: 10 min, 3 h, 10 h, with or without chloroquine
Procedure: Huh7 were seeded in a 35 mm glass-bottomed dish (Mat Tek Corp., Ashland, Mass.) at a density of 100,000 cells per dish. At 70% confluence, the cells were treated with free Dox for 10 min or fluorescently labeled liposomes (*LRD, labeled with 25-NBD cholesterol) for 10 min, 3 h or 10 h. At each time point, the cells were rinsed twice with PBS. After nuclei staining with Hoechst 33342 ([…]) for 10 min, the cells were rinsed again with PBS and imaged in medium by a Nikon-A1R confocal microscope (Nikon America Inc., Melville, N.Y.). For selected treatments, chloroquine was added 12 h prior to the treatment. The cells were rinsed with PBS and incubated with the labeled liposomes for confocal imaging.

Huh7 cells [3] = experiment: Cellular uptake of drug-loaded liposomes, quantitative analysis; assay type: cell-based, human; details: Huh7, 50 μM Dox equivalent; evident at 3, 6 and 12 h
Procedure: Huh7 Cells were seeded in a 12 well plate at a density of 10^5 cells per well. After overnight incubation, the cells were treated with LRHG, LRSG, or free Gem at a concentration equivalent to 50 μM Gem, or with LRD or free Dox at a concentration equivalent to 50 μM Dox. At 3, 6, 12, and 24 h post-treatment, the cells were rinsed twice with cold PBS, trypsinized and collected by centrifugation at 233 rcf. The cell pellets were suspended in PBS and lysed by three cycles of freezing and thawing followed by probe sonication. The protein content in each cell lysate was measured by micro BCA assay. A hundred microliters of cell lysate was mixed with 200 μL of acetonitrile, bath sonicated for 1 h, and centrifuged at 16100 rcf for 30 min to separate a supernatant. The supernatant was evaporated under vacuum overnight and reconstituted in 100 μL of PBS. Dox was detected by the microplate reader at λEx/λEm of 488 nm/580 nm. dFdCTP was detected by HPLC using a 64:36 v/v mixture of two aqueous mobile phases: (i) KH2PO4 10 mM, tetra butyl ammonium bromide (TBABr) 10 mM, pH 7 and 0.25% methanol and (ii) KH2PO4 250 mM, TBABr 10 mM, pH 7 and 15% methanol, run at 1.2 mL/min, and a detection wavelength of 271 nm.

[4] = pKa and ionization of drug; assay type: physicochemical; details: internal pH 3.6
[5] = cited from earlier work
[6] = literature (Bornmann et al.); cited from earlier work
[7] = upon systemic administration; cited from earlier work

| SMILES | IC50 ([1]; 72 h incubation) [nM] | cellular uptake and localisation by confocal microscope imaging (Huh7 cells [2]) | cellular uptake of Dox (Huh7 cells [3]) | ionized/unionized ratio in the interior of liposomes [4] | pKa [5] | IC50 ([1]; Homo sapiens, Huh-7, 72 h incubation) [nM] | reported maximum tolerated dose [6] [mg/kg] | half-life [7] [min] |
| --- | --- | --- | --- | --- | --- | --- | --- | --- |
| COc1cccc2c1C(=O)c1c(O)c3c(c(O)c1C2=O)C[C@@](O)(C(=O)CO)C[C@@H]3O[C@H]1C[C@H](N)[C@H](O)[C@H](C)O1.Cl [Dox, Doxorubicin HCl] | 250 | appearing in the nuclei as early as in 10 min | entering cells more efficiently than LRD | 120,000 | 8.68 | – | – | – |
| Nc1ccn([C@@H]2O[C@H](CO)[C@@H](O)C2(F)F)c(=O)n1 [Gem, Gemcitabine] | – | – | – | – | 3.6 | 1600 | 16 | 8 to 17 |
